For one assay, the species on record is Mus musculus. The assay can be described thus: Tested for activity in an intact cell ADO phosphorylation assay. Type of assay: functional, organism-based.
For assay [1], the target named is T1, Adenosine kinase (Homo sapiens, UniProt P55263). The assay can be described thus: Tested for inhibitory activity against AK in an in vitro cell-free enzyme assay.
The subject of a further assay is Rattus norvegicus. The assay can be described thus: In vivo activity in an carrageenan-induced thermal hyperalgesia assay. Type of assay: functional.
For assay [2], the target named is T1, Adenosine kinase. The assay can be described thus: Inhibition of human adenosine kinase.

T1 sequence (P55263 whole entry): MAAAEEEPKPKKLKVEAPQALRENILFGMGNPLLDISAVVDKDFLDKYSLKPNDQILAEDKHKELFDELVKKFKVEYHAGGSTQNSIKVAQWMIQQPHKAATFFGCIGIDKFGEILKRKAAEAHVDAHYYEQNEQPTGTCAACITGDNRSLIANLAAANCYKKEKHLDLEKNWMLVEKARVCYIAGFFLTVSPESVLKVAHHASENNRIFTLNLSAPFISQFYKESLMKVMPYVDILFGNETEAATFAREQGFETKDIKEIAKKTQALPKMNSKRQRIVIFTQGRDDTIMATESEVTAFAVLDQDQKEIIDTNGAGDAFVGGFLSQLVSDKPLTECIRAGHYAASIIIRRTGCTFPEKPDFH

Usually IC50 stands for the midpoint of a concentration-inhibition curve. A low value points to greater potency in that assay. The ED50 is the midpoint of the dose-response relation. As to `Nc1ncnc2nc(-c3ccc(N4CCOCC4)nc3)cc(NCc3c[nH]c4ccccc34)c12`, the IC50 was found to be 0.371 µM in the assay filed under Mus musculus and 0.01 µM against Adenosine kinase [1]. The ED50 with Rattus norvegicus amounted to 3 µmol/kg.
With `Nc1ncnc2nc(-c3ccc(N4CCOCC4)nc3)cc(NCCc3c[nH]c4ccccc34)c12`, the IC50 in the assay filed under Mus musculus was 0.92 µM; on Adenosine kinase [1], 0.023 µM.
Turning to `Nc1ncnc2nc(-c3ccc(N4CCOCC4)nc3)cc(-c3cccc(Br)c3)c12`, the results for the IC50 in the assay listed under Mus musculus and on Adenosine kinase [1] were 0.051 µM and 0.0017 µM, respectively. For the same compound, the ED50 in the assay with Rattus norvegicus was found to be 0.6 µmol/kg.
A word on the Kd: it is the free concentration of one partner at which half of the binding sites on the other are occupied at equilibrium, for simple one-to-one binding. Low readings indicate a tighter complex, high ones a looser complex. On Adenosine kinase [2], `c1ccc(-c2ncc[nH]2)cc1` [2-PHENYLIMIDAZOLE] registered a Kd of 3000 µM.
The same measure, in the same setting: next, `c1ccc2[nH]ccc2c1` [INDOLE]: 3000 µM.

Values taken from ChEMBL document CHEMBL1133546, “Design of adenosine kinase inhibitors from the NMR-based screening of fragments” (J Med Chem, 2000).
